Like-named read-outs stand apart in the source and are kept apart here.
How the values were obtained:
BSA = target: T1, BSA (Bos taurus, UniProt P02769); parameters: Intact protein LC/MS covalent labelling, fragments in pools of five, 200 uM each, 4 °C; settings: 24 h, 4 °C, pool of five; 200 µM; covalent
T1 construct: gene ALB

NNMT (hNNMT) = target: T2, NNMT (hNNMT) (Homo sapiens, UniProt P40261); parameters: Intact protein LC/MS covalent labelling, fragments in pools of five, 200 uM each, 4 °C; settings: 24 h, 4 °C, pool of five; 200 µM; covalent
T2 construct: wild type, N-terminal His6 tag kept (no cleavage described), E. coli, construct 31248 Da
T2 sequence (P40261 1-264): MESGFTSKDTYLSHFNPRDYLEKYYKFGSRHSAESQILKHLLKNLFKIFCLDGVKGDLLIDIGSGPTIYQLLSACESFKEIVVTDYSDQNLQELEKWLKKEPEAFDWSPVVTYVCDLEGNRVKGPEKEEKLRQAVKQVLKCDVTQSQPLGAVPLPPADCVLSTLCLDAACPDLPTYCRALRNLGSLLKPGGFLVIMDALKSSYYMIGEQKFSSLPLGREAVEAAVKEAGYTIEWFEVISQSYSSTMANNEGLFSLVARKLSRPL

NUDT7 = target: T3, NUDT7 (Homo sapiens, UniProt P0C024); parameters: Intact protein LC/MS covalent labelling, fragments in pools of five, 200 uM each, 4 °C; settings: 24 h, 4 °C, pool of five; 200 µM; covalent
T3 construct: residues 14-235, E. coli, pNIC28-Bsa4, N-terminal His6 tag removed by TEV, construct 26672 Da

OTUB2 (OTUB2A) = target: T4, OTUB2 (OTUB2A) (Homo sapiens, UniProt Q96DC9); parameters: Intact protein LC/MS covalent labelling, fragments in pools of five, 200 uM each, 4 °C; settings: 24 h, 4 °C, pool of five; 200 µM; covalent
T4 construct: full length residues 1-234, E. coli BL21(DE3)-R3, His tag removed by TEV, construct 27312 Da
T4 sequence (Q96DC9 1-234): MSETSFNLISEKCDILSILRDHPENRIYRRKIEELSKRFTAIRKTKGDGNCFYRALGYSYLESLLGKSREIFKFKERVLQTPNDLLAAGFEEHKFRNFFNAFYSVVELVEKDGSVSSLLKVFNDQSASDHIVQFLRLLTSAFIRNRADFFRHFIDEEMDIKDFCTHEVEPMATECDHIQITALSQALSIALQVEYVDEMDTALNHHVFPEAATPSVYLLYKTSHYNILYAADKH

PCAF = target: T5, PCAF (Homo sapiens, UniProt Q92831); parameters: Intact protein LC/MS covalent labelling, fragments in pools of five, 200 uM each, 4 °C; settings: 24 h, 4 °C, pool of five; 200 µM; covalent
T5 construct: gene KAT2B

in vitro [1] = test: in vitro; parameters: species or system CCD841, HEK293; settings: human, hb2 cells, read-out: HB-2 Cells Viability (%)
in vitro [2] = test: in vitro; parameters: species or system HB2, HEK293; settings: human, ccd841 cells
in vitro [3] = test: in vitro; parameters: species or system HB2, CCD841; settings: human, hek293 cells

T3 sequence (P0C024 14-235): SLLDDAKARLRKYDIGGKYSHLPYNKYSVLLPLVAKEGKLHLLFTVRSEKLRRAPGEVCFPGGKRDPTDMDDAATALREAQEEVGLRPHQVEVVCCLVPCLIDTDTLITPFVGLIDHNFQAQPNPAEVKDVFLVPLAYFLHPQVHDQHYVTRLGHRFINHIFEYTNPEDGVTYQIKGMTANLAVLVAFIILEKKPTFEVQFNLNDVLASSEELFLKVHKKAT
T5 sequence (Q92831 whole entry, the tested form may be a part): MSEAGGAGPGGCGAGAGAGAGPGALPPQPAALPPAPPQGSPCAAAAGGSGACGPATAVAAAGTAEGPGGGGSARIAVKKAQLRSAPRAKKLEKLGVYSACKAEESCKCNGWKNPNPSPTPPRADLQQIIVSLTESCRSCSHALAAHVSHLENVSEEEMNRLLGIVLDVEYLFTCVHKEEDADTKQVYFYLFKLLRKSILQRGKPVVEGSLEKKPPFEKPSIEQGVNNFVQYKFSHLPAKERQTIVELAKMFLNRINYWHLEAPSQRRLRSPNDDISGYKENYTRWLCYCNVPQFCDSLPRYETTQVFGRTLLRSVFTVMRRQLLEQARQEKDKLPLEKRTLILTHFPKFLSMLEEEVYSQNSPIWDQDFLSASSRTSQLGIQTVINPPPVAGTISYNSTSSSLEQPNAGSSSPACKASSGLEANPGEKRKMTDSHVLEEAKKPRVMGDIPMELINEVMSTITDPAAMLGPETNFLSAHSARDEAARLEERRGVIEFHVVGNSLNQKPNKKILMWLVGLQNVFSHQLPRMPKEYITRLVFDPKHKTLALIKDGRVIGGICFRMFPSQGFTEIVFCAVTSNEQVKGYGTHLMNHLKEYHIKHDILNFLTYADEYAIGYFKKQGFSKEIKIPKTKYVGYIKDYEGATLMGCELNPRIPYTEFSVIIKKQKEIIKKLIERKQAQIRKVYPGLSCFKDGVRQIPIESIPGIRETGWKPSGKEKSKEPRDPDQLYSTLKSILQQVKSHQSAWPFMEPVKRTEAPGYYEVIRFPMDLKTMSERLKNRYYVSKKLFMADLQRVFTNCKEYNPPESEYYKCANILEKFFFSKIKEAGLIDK
T1 sequence (P02769 whole entry, the tested form may be a part): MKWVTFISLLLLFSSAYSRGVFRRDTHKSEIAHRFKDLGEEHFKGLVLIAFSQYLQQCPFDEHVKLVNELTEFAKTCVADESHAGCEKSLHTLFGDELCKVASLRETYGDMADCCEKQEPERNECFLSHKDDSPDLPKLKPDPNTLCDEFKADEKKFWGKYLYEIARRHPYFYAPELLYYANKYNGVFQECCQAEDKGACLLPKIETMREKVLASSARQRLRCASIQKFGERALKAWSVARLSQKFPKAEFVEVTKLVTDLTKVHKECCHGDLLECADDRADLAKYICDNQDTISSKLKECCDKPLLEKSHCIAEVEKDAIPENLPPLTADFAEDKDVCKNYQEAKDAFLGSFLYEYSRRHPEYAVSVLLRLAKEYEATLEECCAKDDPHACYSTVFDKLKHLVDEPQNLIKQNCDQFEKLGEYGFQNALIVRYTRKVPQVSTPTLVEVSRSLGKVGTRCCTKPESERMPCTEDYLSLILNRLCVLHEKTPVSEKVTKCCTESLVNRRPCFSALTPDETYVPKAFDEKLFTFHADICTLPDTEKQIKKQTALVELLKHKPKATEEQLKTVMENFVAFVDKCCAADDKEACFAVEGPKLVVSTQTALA

BSA (BSA)	NNMT (NNMT (hNNMT))	NUDT7 (NUDT7)	OTUB2 (OTUB2 (OTUB2A))	PCAF (PCAF)	SMILES	viability at 48 h, 10 µM (in vitro [1])	viability at 48 h, 10 µM (in vitro [2])	viability at 48 h, 10 µM (in vitro [3])
0	0	0	0.36	0	CC(C)(C)n1ncc2c1CCCC2NC(=O)CCl.Cl (stereo not shown) [PCM-0103046]	81.5%	90.9%	89.3%
0	0	0	0.43	0	O=C(CCl)NCc1cccc(F)c1 [PCM-0103047]	83.7%	69.7%	88.1%
0	0.2	0	0.87	0	COC(=O)c1cccc(NC(=O)CCl)c1 [PCM-0103048]	17.7%	34.7%	5.1%
0	0	0.13	0.84	0	O=C(CCl)NCc1cc(Br)cs1 [PCM-0103050]	87%	75.7%	53.1%
0	0.23	0	0	0	Cl.O=C(CCl)NC1CCN(C2CC2)CC1 [PCM-0103055]	98.2%	83%	92.7%
0	0	0	0	0	CC1(C)CCCN1C(=O)CCl [PCM-0103060]	104%	92.4%	74.5%
0	0	0	0	0	O=C(CCl)N(C1CCCC1)C1CC1 [PCM-0103064]	102%	87.8%	74%
0	0	0	0	0	O=C(CCl)NCC1CCC1 [PCM-0103065]	104%	108%	104%
0	0	0	0.44	0	Cc1cc(NC(=O)CCl)n(-c2ccccc2F)n1 [PCM-0103066]	64%	65.3%	36%
0	1	1	0.16	0	COc1cccc2sc(NC(=O)CCl)nc12.Cl [PCM-0103067]	32.2%	48.9%	47.6%
0	0	0	0	0	O=C(CCl)Nc1cccc(C(=O)N2CCSCC2)c1 [PCM-0103072]	34.5%	55.2%	7.8%
0.21	0	0	0.55	0	Cc1ccsc1CNC(=O)CCl [PCM-0103075]	96.1%	76.7%	83.8%
0	0.16	0	0.11	0	O=C(CCl)Nc1nc(C2CC2)no1 [PCM-0103076]	104%	102%	97.9%
0	0	0	0.3	0	O=C(CCl)Nc1ccon1 [PCM-0103077]	77.3%	61.1%	64.8%
